{
  "source": "patent US20260184759A1",
  "about": "“CHIMERIC ANTIGEN RECEPTORS SPECIFIC FOR CONJUGATED BIOTIN” (Seattle Children's Hospital (dba Seattle Children's …, priority 2022, published 2026)",
  "key": {"[1]": {"tested_on": "anti-conjugated biotin CAR T cells", "experiment": "ICCS assay with unconjugated biotin added to the co-incubation", "format": "cell-based, human", "conditions": "0 ng, 100 ng, 500 ng, 2 ug unconjugated biotin during 4-hour co-incubation with labelled targets", "description": "Additionally, unconjugated biotin was added to co-incubating cells for the entire 4-hour co-incubation to determine whether unconjugated biotin can block anti-conjugated biotin binding to target cells. Unconjugated biotin was added at 4 different doses: 0 ng (no competition), 100 ng, 500 ng, and 2 ug. […] The cells were then assessed for production of the intracellular cytokines IFN, IL2, and TNF.\nCytokine expression and activation/exhaustion markers of anti-biotin CAR T cells stimulated with targets cells were examined by ICCS. Target cells were labeled with appropriate intermediate adaptors and washed. T cells were then co-incubated with labeled and unlabeled target cells at an E:T ratio of 1:1 for 4 hours in the presence of Protein Transport Inhibitor (ThermoFisher Scientific) to block cytokine secretion. Cells were incubated in the appropriate medium for each target line. 100× Cell Stimulation Cocktail (ThermoFisher Scientific) was used as a positive control. An anti-CD107a BV711 antibody (BioLegend) was also included with the cells during the incubation. Cells were then labeled for dead cells using FVS520 live/dead stain (BD Horizon), washed, and subsequently FcR Blocked (Miltenyi Biotec). Surface markers were then stained using anti-CD4 PacBlue(BioLegend), anti-CD8 PerCP/Cy5.5 (Biolegend), and erbitux-APC (BD Biosciences). […]"}, "[2]": {"tested_on": "anti-conjugated biotin CARs", "experiment": "Competition assay against biotin-PEG-Cy5 binding (flow cytometry)", "design": "species or system human", "conditions": "440 nM biotin-PEG-Cy5 with 0.2, 1, 5 or 20 nM competitor, 30 minutes, room temperature", "procedure": "First, cells expressing various CARs were incubated with 440 nM of biotin-PEG-Cy5 (FIG. 6) for 30 minutes at room temperature. Concurrently, they were exposed to 0 nM (no competition), 0.2 nM, 1 nM, 5 nM, or 20 nM of either unconjugated biotin or a non-fluorescent conjugated biotin (FIG. 7A).\nOne differentiating factor for this CAR when compared with other biotin-binding receptors previously described^28,29,31 is that the CAR may bind any biotin derivative but not the unmodified molecule itself (FIG. 2B). To confirm this selective binding to biotin conjugates, the panel of CAR T cells was incubated with 440 nM of a biotin-PEG-Cy5 conjugate, and titrated doses (20 nM, 5 nM, 1 nM, and 0.2 nM) of competition were incubated concurrently with the soluble antigen. Competition included another conjugated biotin, biotin-PEG2k-folate (FIG. 7A), and unmodified biotin (FIG. 7B).\nTo confirm anti-biotin CAR T cell binding to conjugated biotin, 440 nM of a 1.1 kDa biotin-PEG-Cy5 (Click Chemistry Tools) conjugate was incubated with the cells for 30 min at room temperature. For the competition assay, 0.2 nM, 1 nM, 5 nM, or 20 nM of either 2 kDa biotin-folate (NanoCS) or unconjugated biotin (Sigma-Adrich) were incubated concurrently with the cells and biotin-PEG-Cy5. Cells were washed and fixed in a 0.5% paraformaldehyde solution. […]"}},
  "data": [
    {"molecule": "O=C(O)CCCC[C@@H]1SC[C@@H]2NC(=O)N[C@@H]21", "note": "[unconjugated biotin, biotin]", "values": [
      {"measurement": "impact of unconjugated biotin on activation markers (CD8+ CAR T cells)", "setting": "[1]", "result": "no impact on the activation profiles of the CAR T cells"},
      {"measurement": "impact of unconjugated biotin on intracellular cytokines (CD4+ CAR T cells)", "setting": "[1]", "result": "no impact on the activation profiles of the CAR T cells"},
      {"measurement": "MFI of biotin-PEG-Cy5 binding under competition", "setting": "[2]", "result": "not negatively impacted in their ability to bind biotin conjugated to fluorescent Cy5"},
      {"measurement": "MFI of biotin-PEG-Cy5 binding under competition", "setting": "[2]; listed as unmodified biotin", "result": "no decrease in MFI"}
    ]}
  ]
}
